# Measurements: patent US20150274719A1, “AMINO-SUBSTITUTED IMIDAZO[1,2-A]PYRIDINECARBOXAMIDES AND THEIR USE” (BAYER PHARMA AKTIENGESELLSCHAFT, priority 2012, published 2015)
# Counter-ions that a name gives are not always drawn.
# Molecular target: T1, recombinant guanylate cyclase reporter cell line (Rattus norvegicus, UniProt P19686+P20595)
# T1 construct: expressed in transfected cells; host or cells: recombinant reporter cell line
# T1 sequence (P19686 1-690): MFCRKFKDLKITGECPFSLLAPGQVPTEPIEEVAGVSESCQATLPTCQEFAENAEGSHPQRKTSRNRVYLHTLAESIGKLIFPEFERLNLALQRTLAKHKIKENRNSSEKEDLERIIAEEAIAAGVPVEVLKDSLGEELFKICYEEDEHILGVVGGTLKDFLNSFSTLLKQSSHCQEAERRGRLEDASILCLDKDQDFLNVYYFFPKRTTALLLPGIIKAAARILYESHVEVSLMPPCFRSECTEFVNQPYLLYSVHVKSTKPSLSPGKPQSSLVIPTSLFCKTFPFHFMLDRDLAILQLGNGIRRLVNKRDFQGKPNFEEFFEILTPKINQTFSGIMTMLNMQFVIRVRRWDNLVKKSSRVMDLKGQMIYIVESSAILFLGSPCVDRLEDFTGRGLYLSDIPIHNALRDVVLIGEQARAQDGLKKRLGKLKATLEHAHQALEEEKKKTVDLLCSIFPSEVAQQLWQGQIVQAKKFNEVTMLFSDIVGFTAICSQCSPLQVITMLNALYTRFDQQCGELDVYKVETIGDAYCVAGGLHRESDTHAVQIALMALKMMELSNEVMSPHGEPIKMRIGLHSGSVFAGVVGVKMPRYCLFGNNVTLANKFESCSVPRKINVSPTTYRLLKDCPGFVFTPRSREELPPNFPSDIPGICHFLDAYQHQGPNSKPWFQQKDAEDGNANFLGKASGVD
# T1 sequence (P20595 1-619): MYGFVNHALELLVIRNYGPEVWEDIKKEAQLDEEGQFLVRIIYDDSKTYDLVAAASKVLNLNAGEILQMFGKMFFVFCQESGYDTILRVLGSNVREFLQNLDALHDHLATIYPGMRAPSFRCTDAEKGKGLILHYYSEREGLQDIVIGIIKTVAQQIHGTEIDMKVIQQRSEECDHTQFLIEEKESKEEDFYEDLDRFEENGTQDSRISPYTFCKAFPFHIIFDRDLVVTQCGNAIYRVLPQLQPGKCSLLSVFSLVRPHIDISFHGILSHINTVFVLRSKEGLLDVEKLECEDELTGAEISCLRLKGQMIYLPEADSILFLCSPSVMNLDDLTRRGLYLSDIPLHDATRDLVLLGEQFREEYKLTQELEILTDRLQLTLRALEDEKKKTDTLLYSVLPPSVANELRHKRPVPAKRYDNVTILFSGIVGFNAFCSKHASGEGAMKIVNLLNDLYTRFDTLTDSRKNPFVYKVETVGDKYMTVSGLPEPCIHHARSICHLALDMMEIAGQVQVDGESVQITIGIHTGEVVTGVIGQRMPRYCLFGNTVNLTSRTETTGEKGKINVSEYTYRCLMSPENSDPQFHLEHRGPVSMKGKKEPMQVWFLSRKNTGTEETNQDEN
# Assay: Action on recombinant guanylate cyclase reporter cell line
# Assay type: cell-based
# Settings: in some cases mean values from individual determinations
# Method in brief: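 Each compound is applied to a cell line engineered with a reporter for recombinant guanylate cyclase. The minimal effective concentration is then noted, in part as a mean across separate determinations.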
row,Compound,MEC (minimal effective concentration)
1,"Cc1nc2c(OCc3c(F)cccc3F)cccn2c1C(=O)N[C@H]1CCNC1 [Example 61, 8-[(2,6-Difluorobenzyl)oxy]-2-methyl-N-[(3S)-pyrrolidin-3-yl]imidazo[1,2-a]pyridine-3-carboxamide]",3.00 µM
2,"CCCC[C@H](CN1CCOCC1)NC(=O)c1c(C)nc2c(OCc3c(F)cccc3F)cccn12 [Example 64, ent-8-[(2,6-Difluorobenzyl)oxy]-2-methyl-N-[(2R)-1-(morpholin-4-yl)hexan-2-yl]imidazo[1,2-a]-pyridine-3-carboxamide]",0.30 µM
3,"CCCC[C@H](CN1CCN(C)CC1)NC(=O)c1c(C)nc2c(OCc3c(F)cccc3F)cccn12 [Example 67, ent-8-[(2,6-difluorobenzyl)oxy]-2-methyl-N-[(2R)-1-(4-methylpiperazin-1-yl)hexan-2-yl]imidazo[1,2-a]pyridine-3-carboxamide]",0.30 µM
4,"CCN1C2CCCC1CC(NC(=O)c1c(C)nc3c(OCc4c(F)cccc4F)cccn13)C2 (centres unmarked) [Example 71, 8-[(2,6-Difluorobenzyl)oxy]-N-(9-ethyl-9-azabicyclo[3.3.1]non-3-yl)-2-methylimidazo[1,2-a]-pyridine-3-carboxamide]",0.30 µM
5,"Cc1nc2c(OCc3c(F)cccc3F)cccn2c1C(=O)NCC(C)(C)N [Example 72, N-(2-Amino-2-methylpropyl)-8-[(2,6-difluorobenzyl)oxy]-2-methylimidazo[1,2-a]pyridine-3-carboxamide]",0.30 µM
6,"Cc1nc2c(OCc3c(F)cccc3F)cccn2c1C(=O)NCCNc1ccc(F)cc1 [Example 79, 8-[(2,6-difluorobenzyl)oxy]-N-{2-[(4-fluoro-phenyl)amino]ethyl}-2-methylimidazo[1,2-a]-pyridine-3-carboxamide]",1.00 µM
7,"Cc1nc2c(OCc3c(F)cccc3F)cccn2c1C(=O)NC1CC(C)(C)N(C)C(C)(C)C1 [Example 83, 8-[(2,6-difluorobenzyl)oxy]-2-methyl-N-(1,2,2,6,6-pentamethylpiperidin-4-yl)imidazo[1,2-a]pyridine-3-carboxamide]",0.10 µM
8,"Cc1nc2c(OCc3c(F)cccc3F)cccn2c1C(=O)NC1CC2CCCC(C1)N2C (centres unmarked) [Example 90, 8-[(2,6-difluorobenzyl)oxy]-2-methyl-N-(9-methyl-9-azabicyclo[3.3.1]non-3-yl)imidazo[1,2-a]pyridine-3-carboxamide]",0.10 µM
9,"Cc1nc2c(OCc3c(F)cccc3F)cccn2c1C(=O)NC1CC2CCC(C1)N2C (centres unmarked) [Example 91, 8-[(2,6-difluorobenzyl)oxy]-2-methyl-N-(8-methyl-8-azabicyclo[3.2.1]oct-3-yl)imidazo[1,2-a]pyridine-3-carboxamide]",1.00 µM
10,"Cc1nc2c(OCc3c(F)cccc3F)cccn2c1C(=O)NC1CN2CCC1CC2 (centres unmarked) [Example 92, N-(1-azabicyclo[2.2.2]oct-3-yl)-8-[(2,6-difluorobenzyl)oxy]-2-methylimidazo[1,2-a]-pyridine-3-carboxamide]",0.30 µM
11,"[2H]C([2H])(Oc1cccn2c(C(=O)NC(CN)c3ccc(F)c(F)c3)c(C)nc12)c1c(F)cccc1F (stereo not drawn) [Example 97, ent-N-[2-Amino-1-(3,4-difluorophenyl)ethyl]-8-{[(2,6-difluorophenyl)(^2H2)methyl]oxy}-2-methylimidazo[1,2-a]pyridine-3-carboxamide]",0.10 µM
12,Cc1nc2c(OCc3cccc(F)c3F)cccn2c1C(=O)NC(CN)c1ccc(F)c(F)c1 (centres unmarked) [Example 99],1.00 µM

# Other lines, results leading:
row,MEC (minimal effective concentration),Compound
1,2.00 µM,"NCC(NC(=O)c1cnc2c(OCc3c(F)cccc3F)cccn12)c1ccc(F)c(F)c1 (stereo not drawn) [Example 55, ent-N-[2-amino-1-(3,4-difluorophenyl)ethyl]-8-[(2,6-difluorobenzyl)oxy]imidazo[1,2-a]pyridine-3-carboxamide dihydrochloride]"
2,0.30 µM,"Cc1nc2c(OCc3c(F)cccc3F)cccn2c1C(=O)N[C@H]1CCCNC1 [Example 60, 8-[(2,6-difluorobenzyl)oxy]-2-methyl-N-[(3S)-piperidin-3-yl]imidazo[1,2-a]pyridine-3-carboxamide dihydrochloride]"
3,1.00 µM,"CCCC[C@H](CN1CCCC1)NC(=O)c1c(C)nc2c(OCc3c(F)cccc3F)cccn12 [Example 66, ent-8-[(2,6-difluorobenzyl)oxy]-2-methyl-N-[(2R)-1-(pyrrolidin-1-yl)hexan-2-yl]imidazo[1,2-a]-pyridine-3-carboxamide]"
4,0.30 µM,"CCCC[C@H](CN(C)C)NC(=O)c1c(C)nc2c(OCc3c(F)cccc3F)cccn12 [Example 68, ent-8-[(2,6-difluorobenzyl)oxy]-N-[(2R)-1-(dimethylamino)hexan-2-yl]-2-methylimidazo[1,2-a]-pyridine-3-carboxamide]"
5,1.00 µM,"CCCC[C@H](CN(CC)CC)NC(=O)c1c(C)nc2c(OCc3c(F)cccc3F)cccn12 [Example 69, ent-8-[(2R)-1-(diethylamino)hexan-2-yl]-8-[(2,6-difluorobenzyl)oxy]-2-methylimidazo[1,2-a]-pyridine-3-carboxamide]"
6,1.00 µM,"CCCC[C@H](CNCCOC)NC(=O)c1c(C)nc2c(OCc3c(F)cccc3F)cccn12 [Example 70, ent-8-[(2,6-difluorobenzyl)oxy]-N-{(2R)-1-[(2-methoxyethyl)amino]hexan-2-yl}-2-methylimidazo[1,2-a]pyridine-3-carboxamide]"
7,0.20 µM,"Cc1nc2c(OCc3c(F)cccc3F)cccn2c1C(=O)NC1CC(C)(C)NC(C)(C)C1 [Example 82, 8-[(2,6-Difluorobenzyl)oxy]-2-methyl-N-(2,2,6,6-tetramethylpiperidin-4-yl)imidazo[1,2-a]-pyridine-3-carboxamide]"
8,2.00 µM,"Cc1nc2c(OCc3c(F)cccc3F)cccn2c1C(=O)NCCN(C)C [Example 86, 8-[(2,6-difluorobenzyl)oxy]-N-[2-(dimethyl-amino)ethyl]-2-methylimidazo[1,2-a]pyridine-3-carboxamide]"
9,1.00 µM,"Cc1nc2c(OCc3c(F)cccc3F)cccn2c1C(=O)NCCCN(C)C [Example 87, 8-[(2,6-difluorobenzyl)oxy]-N-[3-(dimethyl-amino)propyl]-2-methylimidazo[1,2-a]-pyridine-3-carboxamide]"
10,1.00 µM,"Cc1nc2c(OCc3c(F)cccc3F)cccn2c1C(=O)NCCN(C(C)C)C(C)C [Example 88, 8-[(2,6-difluorobenzyl)oxy]-N-[2-(diisopropyl-amino)ethyl]-2-methylimidazo[1,2-a]pyridine-3-carboxamide]"
11,0.65 µM,"Cc1nc2c(OCc3c(F)cccc3F)cccn2c1C(=O)NCCN1CCOCC1 [Example 89, 8-[(2,6-difluorobenzyl)oxy]-2-methyl-N-[2-(morpholin-4-yl)ethyl]imidazo[1,2-a]pyridine-3-carboxamide]"
12,0.30 µM,"Cc1cc(OCc2c(F)cccc2F)c2nc(C)c(C(=O)NCC(C)(C)NCC(F)(F)F)n2c1 [Example 94, 8-[(2,6-Difluorobenzyl)oxy]-2,6-dimethyl-N-{2-methyl-2-[(2,2,2-trifluoroethyl)amino]propyl}-imidazo[1,2-a]pyridine-3-carboxamide]"
13,1.00 µM,"Cc1nc2c(OCc3ccccc3F)cccn2c1C(=O)NC(CN)c1ccc(F)c(F)c1 (stereo not drawn) [Example 98, ent-N-[2-Amino-1-(3,4-difluorophenyl)ethyl]-8-[(2-fluorobenzyl)oxy]-2-methylimidazo[1,2-a]-pyridine-3-carboxamide]"
14,0.30 µM,"Cc1nc2c(OCc3c(F)ccc(F)c3F)cccn2c1C(=O)NC(CN)c1ccc(F)c(F)c1 (stereo not drawn) [Example 100, ent-N-[2-amino-1-(3,4-difluorophenyl)ethyl]-2-methyl-8-[(2,3,6-trifluorobenzyl)oxy]imidazo[1,2-a]pyridine-3-carboxamide]"
